Experimental data from patent US20050118226A1, “Methods for treating ACAT-related diseases” (priority 2003, published 2005).
“Also recorded” adds a separate entry of the source.

Legend:
endogenous APP = assay: Western blot of endogenous APP processing in brains of non-transgenic littermates; assay type: in vivo, mouse
Description: For Western blot analyses, frozen hemispheres of non-transgenic littermates were homogenized in TBS buffer containing 5 mM EDTA, 1 mM 1,10-phenanthroline (ICN Biomedicals), 20 μM ALLN (BioMol) and a protease inhibitor mixture (Roche). Homogenates were centrifuged at 100000 g for 1 hour at +4° C. The supernatants were used for analyses of secreted APP forms and ApoE, while the pellets extracted with the homogenization buffer containing 1% Triton X-100 and 0.2% SDS. 120 μg of total protein were resolved on 4-12% or 12% NuPAGE Bis-Tris gels (Invitrogen) under reducing conditions, and Western blots were performed as described previously (Puglielli et al., 2001). For analysis of Notch-ICD (NICD), 250 μg of total protein was immunoprecipitated with an NICD-specific antibody (cleavage site (Val1744)-specific; Cell Signaling Technology) according to manufacturer's recommendations. Antibodies used for Western blots were R1736 (specific for sAPP-α; a gift from Dr. D. J. Selkoe, Brigham and Women's Hospital, Boston, Mass.), Abl4 (PS 1-NTF; a gift from Dr. S. E. Gandy, Thomas Jefferson University, Philadelphia, Pa.), Pen2 (a gift from Dr. S. S. Sisodia, University of Chicago, Chicago, Ill.), N-Cadherin (C32, C-terminal; BD Transduction Laboratories), ApoE (Santa Cruz Biotechnology), β-tubulin (Sigma), BACE1 and Nicastrin (Affinity BioReagents). Rbt×APP (CTF), 22C11 (APP-NTF) and Rbt×PSI (PS 1-CTF) were from Chemicon International. BACE stainings (N-terminal; Affinity BioReagents) were confirmed with two additional antibodies; Ms×BACE1 (Chemicon International) and BACE (C-terminal; Affinity BioReagents). Densitometric analyses were performed using the QuantityOne software package (Bio-Rad). Statistical significance was determined by Student's t test. For Western blot analyses shown in supplemental figures, neutralized formic acid fractions (approximately 100 μg of total protein) were precipitated by adding 50% trichloroacetic acid to 15.5% final concentration. After 30 min incubation and centrifugation at 4° C., the pellets were solubilized by adding 10 μl of 2M Tris base and 10 μl of 4×LDS-PAGE loading buffer (NuPage, Invitrogen). Before loading, the samples were incubated for 30 min at 37° C., freeze-thawed once and boiled. Western blot analysis was performed as described above.
Our previous cell-based studies have shown that ACAT inhibition reduces Aβ generation and alters APP processing by all three secretases (Puglielli et al., 2001). To determine whether CP-113,818 treatment modified brain APP processing in hAPP mice, we initially resolved formic acid-extracted brain proteins by SDS-PAGE to detect APP and its proteolytic derivatives. […]

adrenal cortical cells = assay: Adrenal gland histology (hematoxylin and eosin) for CP-113,818 toxicity in hAPP mice; assay type: in vivo; conditions: 7.2 mg/kg per day, two months, 7.2 mg/kg/day
Description: Animals were sacrificed the day after the last MWM training, on day 57 of treatment. Blood was obtained by cardiac puncture and total serum was used for cholesterol determination. Transcardiac perfusion with 4C PBS was performed, followed by dissection. Brains were removed, divided along the sagittal plane and then either frozen in liquid nitrogen or imersion fixed with 4% paraformaldehyde for histologic evaluation. Liver was frozen in liquid nitrogen, and adrenal glands were fixed in 4% paraformaldehyde followed by standard paraffin embedding and sectioning. Hematoxylin and eosin stained 6-8 um sections were analyzed for evidence of CP-113,818 toxicity.
To characterize the effect of CP-113,818 treatment on AD-like pathology, we used hAPP mice that express human APP751 containing the London (V717I) and Swedish (K670M/N671L) mutations under the regulatory control of the murine Thy-1 promoter (mThy1-hAPP751) (Rockenstein et al., 2001). These animals develop detectable plaques in the neocortex and hippocampus at the ages of 4 and 6 months, respectively, and show memory deficits starting at 6 months of age. […] Therefore, we included similar numbers of male and female animals in both placebo and CP-113,818 groups to detect possible gender-specific effects of the inhibitor in our mouse model. […]

Compound: CCCCCCCC[C@H](SCCCCCC)C(=O)Nc1c(SC)cc(C)nc1SC [CP-113,818]
- decrease in the ratio between total sAPP and sAPPα (endogenous APP): 36%
- decrease of endogenous mouse APP-CTF levels (endogenous APP; brain lysates, normalized to APP holoprotein, vs placebo): 44%
- reduction of total sAPP (endogenous APP; soluble TBS fraction): 19.1%
- decrease of sAPPα (endogenous APP; soluble TBS fraction, trend, n.s.): 3.4%
- adrenal toxicity (vacuolization in cytoplasm of adrenal cortical cells) (adrenal cortical cells): no histologic evidence of toxicity; also recorded: did not show signs of vacuolization
